Measurements as given in patent US10894777B2, “TG2 inhibitor piperazine compounds and uses thereof” (UNIVERSITY OF OTTAWA, priority 2016, dated 2021).

Experiments:
T98G cells = experiment: Agarose colony formation assay, T98G cells; type: cell-based, human; conditions: 10 μM, 2 weeks
Experimental: Agarose colony formation assay. Agarose colony formation assay was conducted as described (Horman, S. R. et al., J. Biomol. Screen 18(10):1298-308, 2013; Zhang, K. et al., Tumour Biol. 35(3):2537-48, 2014) using 6-well plates and 5,000 cells in each well. 10 μM NC9 or DMSO was added to every layer at the start of the experiments. 2 mL liquid MEM containing 10 μM NC9 or DMSO was used to cover the agarose and it was changed 3 times a week. Colony growth was monitored every day and at the end of 10-15 days, the colonies were fixed with 4% paraformaldehyde, stained with 0.005% crystal violet, washed with PBS twice and 40 random pictures were taken from each treatment group. A person blinded for the treatments measured the area of the colonies using ImageJ program and the volumes were calculated from the area data under the assumption that the colonies are perfect spheres. The volumes were used to compare the effect of NC9 on colony growth.

SCC-13 cells = experiment: Migration (scratch wound closure) assay, SCC-13 cells; type: cell-based, human; conditions: for cell migration (scratch wound closure): 0-12 h
Experimental: (§1) Migration assay. SCC13-Control-shRNA or SCC13-TG2-shRNA2 cells (2×10^6) were plated in 10 cm dishes and grown as monolayer cultures in spheroid medium until confluent. A 10 μl pipette tip was used to prepare areas void of cells and the dishes were washed to remove the dislodged cells. Images were collected, at 0-18 h after the scratch using the 10× objective, and the width of the opening was measured as a function of time as an index of cell migration potential.
as §1, with “Cells (2 million)” for “SCC13-Control-shRNA or SCC13-TG2-shRNA2 cells (2×10^6)”, “The ability of the cells to close the scratch wounds was monitored” for “Images were collected,”, “(Adhikary, G. et al., PLoS One 8:e84324, 2013).” for “potential.”

TS565 neurospheres = experiment: Neurosphere growth, TS565 (proneural); type: cell-based, human; conditions: 25 μM, 2 weeks
From the text: Neurosphere cultures. TS543, TS565 and TS676, which represent the mesenchymal, proneural and classical glioblastoma subtypes respectively, based on transcriptomic and genomic analysis, were obtained from C. Brennan through the Monoclonal Antibody Core Facility at Memorial Sloan Kettering Cancer Center (Brennan, C. et al., PLoS One 4(11):e7752, 2009; Pyonteck, S. M. et al., Nature Med. 19(10):1264-72, 2013; Rohle, D. et al., Science 340(6132):626-30, 2013) and maintained in NeuroCult™ NS-A Proliferation Kit (Human) (Stem Cell Technologies) according to manufacturer's instructions. (NeuroCult Medium was supplemented with 20 ng/mL FGF, 50 ng/mL EGF and 0.0002% Heparin). To prevent neurosphere attachment to the bottom of the cell culture plates, Poly 2-hydroxyethyl methacrylate (PHM) was used. 6-well plates were coated with 1 mL/well of 1% PHM in ethanol (w/v). The plates were air dried in a sterile environment overnight and washed once with PBS and they were kept in the fridge in a sterile environment until use. For passaging, neurospheres were triturated according to instructions and 5,000 cells were seeded in each well in 2 mL medium. For treatments with TG2 inhibitors, cells were inoculated in medium containing 25 μM TG2 inhibitor or DMSO control. 200 μL of medium containing the 25 μM TG2 inhibitor or DMSO was added every other day. At the end of 2 weeks, 20-50 random microscopic images were captured for each group. The average volume of each sphere image was determined using Image J by a person blinded for neurosphere lines and treatments and volumes were calculated from the area data and used for comparison.

purified human TG2 = target: T1, purified human TG2 (Homo sapiens, UniProt P21980); experiment: Native PAGE of TG2 conformation; type: biochemical; conditions: NC9 120 μM, VA4 40 μM, VA5 40 μM with calcium, 90 min
T1 sequence (P21980 1-687): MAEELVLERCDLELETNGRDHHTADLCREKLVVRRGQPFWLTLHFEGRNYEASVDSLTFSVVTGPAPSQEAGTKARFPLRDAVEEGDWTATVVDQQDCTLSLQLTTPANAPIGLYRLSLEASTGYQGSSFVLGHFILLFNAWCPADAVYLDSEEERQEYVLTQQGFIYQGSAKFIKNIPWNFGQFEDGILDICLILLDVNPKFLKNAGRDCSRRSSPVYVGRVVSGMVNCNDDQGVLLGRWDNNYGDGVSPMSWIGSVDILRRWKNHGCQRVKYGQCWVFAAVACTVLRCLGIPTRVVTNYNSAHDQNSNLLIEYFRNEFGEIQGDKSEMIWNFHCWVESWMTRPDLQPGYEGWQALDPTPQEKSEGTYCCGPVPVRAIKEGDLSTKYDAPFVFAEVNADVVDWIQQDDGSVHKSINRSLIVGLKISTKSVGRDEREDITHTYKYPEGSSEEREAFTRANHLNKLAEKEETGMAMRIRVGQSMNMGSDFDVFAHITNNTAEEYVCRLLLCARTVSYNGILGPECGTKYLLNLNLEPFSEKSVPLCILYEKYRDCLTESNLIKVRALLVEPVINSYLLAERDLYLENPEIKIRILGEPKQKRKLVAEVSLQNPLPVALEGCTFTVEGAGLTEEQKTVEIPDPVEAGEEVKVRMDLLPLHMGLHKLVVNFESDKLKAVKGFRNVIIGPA
Experimental: Following this incubation, samples were run on polyacrylamide gel under non-denaturing conditions and in the presence of […] and magnesium. The gel was Coomassie stained and a picture of the gel is shown.
Native PAGE. Native gel electrophoresis experiments were performed using a method similar to those described previously (Begg, G. E. et al., Proc. Natl. Acad. Sci. U.S.A. 103: 19683-19688, 2006; Pinkas, D. M. et al., PLoS Biol. 5: e327, 2007). Briefly, TG2 or inhibited TG2 (2.5 μM) was incubated for 1.5 h at room temperature in pre-incubation buffer (50 mM Tris, 5 mM DTT, 0.5 mM EDTA) at pH 7.0 with or without 100 μM GTP/1.0 mM MgCl2 or 5.0 mM CaCl2. Laemmli native loading buffer was added (1:1) and 1.5 μg of TG2 was loaded onto a 4-20% Tris-HCl ReadyGel (Bio-Rad) using Tris-glycine as the running buffer with 100 μM GTP/1.0 mM MgCl2. For 90 min, 120 V was applied at 4° C. The gel was stained with 0.5% Coomassie brilliant blue R-250 in 40% methanol/10% acetic acid and destained in 10% methanol/10% acetic acid.

Row | SMILES | colony growth, T98G (T98G cells) | cell migration (scratch wound closure) (SCC-13 cells) | cell migration (SCC-13 cells; 20 μM, 0-18 h) | sphere growth, TS565 (TS565 neurospheres) | conformation of inhibitor-bound TG2 (purified human TG2)
1 | C=CC(=O)NCCCC[C@H](NC(=O)OCc1ccccc1)C(=O)NCCOCCOCCNS(=O)(=O)c1cccc2c(N(C)C)cccc12 [NC9] | significantly reduced the growth | inhibited cell migration | reduced | suppressed sphere growth | open conformation
2 | C=CC(=O)NCCCC[C@H](NC(=O)OCc1ccccc1)C(=O)N1CCN(S(=O)(=O)c2cccc3c(N(C)C)cccc23)CC1 [VA4, (S)-benzyl(6-acrylamido-1-(4-((5-(dimethylamino)naphthalen-1-yl)sulfonyl)piperazin-1-yl)-1-oxohexan-2-yl)carbamate] | inhibited colony growth | inhibited cell migration |  | suppressed sphere growth | open conformation
3 | C=CC(=O)NCCCC[C@H](NC(=O)OCc1ccccc1)C(=O)N1CCN(C(=O)c2cc3ccc(O)cc3oc2=O)CC1 [VA5, (S)-Benzyl(6-acrylamido-1-(4-(7-hydroxy-2-oxo-2H-chromene-3-carbonyl)piperazin-1-yl)-1-oxohexan-2-yl)carbamate] | did not suppress colony growth | inhibited cell migration |  | only mildly suppressive | open conformation
